According to US11091478B2 (Fochon Pharmaceuticals, Ltd., priority 2017, dated 2021):

Legend:
DOHH2 cells = test: Cell proliferation assay (MTS), DOHH2 cells, 120 h; type: cell-based; conditions: Homo sapiens, DOHH-2, 120 h
Method in brief: (§1)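 Treatment lasts 72 h for RS4;11 and 120 h for DOHH2 cells seeded at 5000 per well in serum-containing RPMI-1640. A 2 h MTS step, halted with 10% SDS, precedes dual-wavelength absorbance reading and IC50 fitting.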

RS4;11 cells = test: Cell proliferation assay (MTS), RS4;11 cells, 72 h; type: cell-based; conditions: Homo sapiens, RS4-11, 72 h
Method in brief: as §1

SMILES	IC50 (DOHH2 cells)	IC50 (RS4;11 cells)
CC1(C)CCC(CN2CCN(c3ccc(C(=O)NS(=O)(=O)c4cc5c(c([N+](=O)[O-])c4)N[C@H](C4CCN(S(C)(=O)=O)CC4)CO5)c(Oc4cnc5[nH]ccc5c4)c3)CC2)=C(c2ccc(Cl)cc2)C1 [Example 2-225, (R)-2-((1H-pyrrolo[2,3-b]pyridin-5-yl)oxy)-4-(4-((4′-chloro-5,5-dimethyl-3,4,5,6-tetra-hydro-[1,1′-biphenyl]-2-yl)methyl)piperazin-1-yl)-N-((3-(1-(methylsulfonyl)piperidin-4-yl)-5-nitro-3,4-dihydro-2H-benzo[b][1,4]oxazin-7-yl)sulfonyl)benzamide]	15 nM	2 nM
CC1(C)CCC(CN2CCN(c3ccc(C(=O)NS(=O)(=O)c4cc5c(c([N+](=O)[O-])c4)N[C@H](C4CCNCC4)CO5)c(Oc4cnc5[nH]ccc5c4)c3)CC2)=C(c2ccc(Cl)cc2)C1 [Example 2-226, (R)-2-((1H-pyrrolo[2,3-b]pyridin-5-yl)oxy)-4-(4-((4′-chloro-5,5-dimethyl-3,4,5,6-tetra-hydro-[1,1′-biphenyl]-2-yl)methyl)piperazin-1-yl)-N-((5-nitro-3-(piperidin-4-yl)-3,4-dihydro-2H-benzo[b][1,4]oxazin-7-yl)sulfo-nyl)benzamide]	48 nM	10 nM
CN1CCC([C@@H]2COc3cc(S(=O)(=O)NC(=O)c4ccc(N5CCN(CC6=C(c7ccc(Cl)cc7)CC(C)(C)CC6)CC5)cc4Oc4cnc5[nH]ccc5c4)cc([N+](=O)[O-])c3N2)CC1 [Example 2-227, (R)-2-((1H-pyrrolo[2,3-b]pyridin-5-yl)oxy)-4-(4-((4′-chloro-5,5-dimethyl-3,4,5,6-tetra-hydro-[1,1′-biphenyl]-2-yl)methyl)piperazin-1-yl)-N-((3-(1-methylpiperidin-4-yl)-5-ni-tro-3,4-dihydro-2H-benzo[b][1,4]oxazin-7-yl)sulfonyl)benzamide]	6 nM	1 nM
CC1(C)CCC(CN2CCN(c3ccc(C(=O)NS(=O)(=O)c4cc5c(c([N+](=O)[O-])c4)N[C@@H](C4CCN(C(=O)OC(C)(C)C)CC4)CO5)c(Oc4cnc5[nH]ccc5c4)c3)CC2)=C(c2ccc(Cl)cc2)C1 [Example 2-229, tert-butyl (S)-4-(7-(N-(2-((1H-pyrrolo[2,3-b]pyridin-5-yl)oxy)-4-(4-((4′-chloro-5,5-dimethyl-3,4,5,6-tetrahydro-[1,1′-biphenyl]-2-yl)meth-yl)piperazin-1-yl)benzoyl)sulfamoyl)-5-nitro-3,4-dihydro-2H-benzo[b][1,4]oxazin-3-yl)piperidine-1-carboxylate]	1 nM	38 nM
COC(=O)N1CCC([C@H]2COc3cc(S(=O)(=O)NC(=O)c4ccc(N5CCN(CC6=C(c7ccc(Cl)cc7)CC(C)(C)CC6)CC5)cc4Oc4cnc5[nH]ccc5c4)cc([N+](=O)[O-])c3N2)CC1 [Example 2-230, methyl (S)-4-(7-(N-(2-((1H-pyrrolo[2,3-b]pyridin-5-yl)oxy)-4-(4-((4′-chloro-5,5-dimethyl-3,4,5,6-tetrahydro-[1,1′-biphenyl]-2-yl)methyl)piperazin-1-yl)benzoyl)sulfamoyl)-5-nitro-3,4-dihydro-2H-benzo[b][1,4]oxazin-3-yl) piperidine-1-carboxylate]	2 nM	1 nM
CC(=O)N1CCC([C@H]2COc3cc(S(=O)(=O)NC(=O)c4ccc(N5CCN(CC6=C(c7ccc(Cl)cc7)CC(C)(C)CC6)CC5)cc4Oc4cnc5[nH]ccc5c4)cc([N+](=O)[O-])c3N2)CC1 [Example 2-231, (S)-2-((1H-pyrrolo[2,3-b]pyridin-5-yl)oxy)-N-((3-(1-acetylpiperidin-4-yl)-5-nitro-3,4-dihydro-2H-benzo[b][1,4]oxazin-7-yl)sulfonyl)-4-(4-((4′-chloro-5,5-dimethyl-3,4,5,6-tetrahydro-[1,1′-biphenyl]-2-yl)methyl)pi-perazin-1-yl)benzamide]	5 nM	1 nM
CC1(C)CCC(CN2CCN(c3ccc(C(=O)NS(=O)(=O)c4cc5c(c([N+](=O)[O-])c4)N[C@@H](C4CCN(S(C)(=O)=O)CC4)CO5)c(Oc4cnc5[nH]ccc5c4)c3)CC2)=C(c2ccc(Cl)cc2)C1 [Example 2-232, (S)-2-((1H-pyrrolo[2,3-b]pyridin-5-yl)oxy)-4-(4-((4′-chloro-5,5-dimethyl-3,4,5,6-tetra-hydro-[1,1′-biphenyl]-2-yl)methyl)piperazin-1-yl)-N-((3-(1-(methyslulfonyl)piperidin-4-yl)-5-nitro-3,4-dihydro-2H-benzo[b][1,4]oxazin-7-yl)sulfonyl)benzamide]	1 nM	6 nM
CN1CCC([C@H]2COc3cc(S(=O)(=O)NC(=O)c4ccc(N5CCN(CC6=C(c7ccc(Cl)cc7)CC(C)(C)CC6)CC5)cc4Oc4cnc5[nH]ccc5c4)cc([N+](=O)[O-])c3N2)CC1 [Example 2-233, (S)-2-((1H-pyrrolo[2,3-b]pyridin-5-yl)oxy)-4-(4-((4′-chloro-5,5-dimethyl-3,4,5,6-tetra-hydro-[1,1′-biphenyl]-2-yl)methyl)piperazin-1-yl)-N-((3-(1-methylpiperidin-4-yl)-5-ni-tro-3,4-dihydro-2H-benzo[b][1,4]oxazin-7-yl)sulfonyl)benzamide]	13 nM	17 nM
CC1(C)CCC(c2ccc(Cl)cc2)=C(CN2CCN(c3ccc(C(=O)NS(=O)(=O)c4cc5c(c([N+](=O)[O-])c4)N[C@H](COC4CCOCC4)CO5)c(Oc4cnc5[nH]ccc5c4)c3)CC2)C1 [Example 2-234, (R)-2-((1H-pyrrolo[2,3-b]pyridin-5-yl)oxy)-4-(4-((4′-chloro-4,4-dimethyl-3,4,5,6-tetra-hydro-[1,1′-biphenyl]-2-yl)methyl)piperazin-1-yl)-N-((5-nitro-3-(((tetrahydro-2H-pyran-4-yl)oxy)methyl)-3,4-dihydro-2H-benzo [b][1,4]oxazin-7-yl)sulfonyl)benzamide]	6 nM	14 nM
CC1(C)CCC(c2ccc(Cl)cc2)=C(CN2CCN(c3ccc(C(=O)NS(=O)(=O)c4cc5c(c([N+](=O)[O-])c4)N[C@@H](CC4CCOCC4)CO5)c(Oc4cnc5[nH]ccc5c4)c3)CC2)C1 [Example 2-235, (S)-2-((1H-pyrrolo[2,3-b]pyridin-5-yl)oxy)-4-(4-((4′-chloro-4,4-dimethyl-3,4,5,6-tetra-hydro-[1,1′-biphenyl]-2-yl)methyl)piperazin-1-yl)-N-((5-nitro-3-((tetrahydro-2H-pyran-4-yl)methyl)-3,4-dihdyro-2H-benzo[b] [1,4]oxazin-7-yl)sulfonyl)benzamide]	23 nM	10 nM
CC(C)OC[C@@H]1COc2cc(S(=O)(=O)NC(=O)c3ccc(N4CCN(CC5=C(c6ccc(Cl)cc6)CC(C)(C)CC5)CC4)cc3Oc3cnc4[nH]ccc4c3)cc([N+](=O)[O-])c2N1 [Example 2-236, (R)-2-((1H-pyrrolo[2,3-b]pyridin-5-yl)oxy)-4-(4-((4′-chloro-5,5-dimethyl-3,4,5,6-tetra-hydro-[1,1′-biphenyl]-2-yl)methyl)piperazin-1-yl)-N-((3-(isopropoxymethyl)-5-nitro-3,4-dihydro-2H-benzo[b][1,4]oxazin-7-yl)sulfonyl)benzamide]	6 nM	1 nM
CC(C)OC[C@H]1COc2cc(S(=O)(=O)NC(=O)c3ccc(N4CCN(CC5=C(c6ccc(Cl)cc6)CC(C)(C)CC5)CC4)cc3Oc3cnc4[nH]ccc4c3)cc([N+](=O)[O-])c2N1 [Example 2-237, (S)-2-((1H-pyrrolo[2,3-b]pyridin-5-yl)oxy)-4-(4-((4′-chloro-5,5-dimethyl-3,4,5,6-tetra-hydro-[1,1′-biphenyl]-2-yl)methyl)piperazin-1-yl)-N-((3-(isopropoxymethyl)-5-nitro-3,4-dihydro-2H-benzo[b][1,4]oxazin-7-yl)sulfonyl)benzamide]	3 nM	14 nM
CC1(C)CCC(CN2CCN(c3ccc(C(=O)NS(=O)(=O)c4cc5c(c([N+](=O)[O-])c4)N[C@H](C4CCCCC4)CO5)c(Oc4cnc5[nH]ccc5c4)c3)CC2)=C(c2ccc(Cl)cc2)C1 [Example 2-238, (R)-2-((1H-pyrrolo[2,3-b]pyridin-5-yl)oxy)-4-(4-((4′-chloro-5,5-dimethyl-3,4,5,6-tetra-hydro-[1,1′-biphenyl]-2-yl)methyl)piperazin-1-yl)-N-((3-cyclohexyl-5-nitro-3,4-dihydro-2H-benzo[b][1,4]oxazin-7-yl)sulfo-nyl)benzamide]	18 nM	9 nM
CC1(C)CCC(CN2CCN(c3ccc(C(=O)NS(=O)(=O)c4cc5c(c([N+](=O)[O-])c4)N[C@@H](COC4CC4)CO5)c(Oc4cnc5[nH]ccc5c4)c3)CC2)=C(c2ccc(Cl)cc2)C1 [Example 2-241, (S)-2-((1H-pyrrolo[2,3-b]pyridin-5-yl)oxy)-4-(4-((4′-chloro-5,5-dimethyl-3,4,5,6-tetra-hydro-[1,1′-biphenyl]-2-yl)methyl)piperazin-1-yl)-N-((3-(cyclopropoxymethyl)-5-nitro-3,4-dihydro-2H-benzo[b][1,4]oxazin-7-yl)sulfonyl)benzamide]	11 nM	4 nM
CC1(C)CCC(c2ccc(Cl)cc2)=C(CN2CCN(c3ccc(C(=O)NS(=O)(=O)c4cc5c(c([N+](=O)[O-])c4)N[C@H](CO[C@H]4CC[C@H](O)CC4)CO5)c(Oc4cnc5[nH]ccc5c4)c3)CC2)C1 [Example 2-243, 2-((1H-pyrrolo[2,3-b]pyridin-5-yl)oxy)-4-(4-((4′-chloro-4,4-dimethyl-3,4,5,6-tetrahydro-[1,1′-biphenyl]-2-yl)methyl)piperazin-1-yl)-N-(((R)-3-((((1r,4R)-4-hydroxycyclo-hexyl)oxy)methyl)-5-nitro-3,4-dihydro-2H-benzo[b][1,4]oxazin-7-yl)sulfonyl)benzamide]	1 nM	9 nM
